Consider 17 molecules from patent publication US20210355106A1, “NEW AMINO-PYRIMIDONYL-PIPERIDINYL DERIVATIVES, A PROCESS FOR THEIR PREPARATION AND PHARMACEUTICAL COMPOSITIONS CONTAINING THEM” (LES LABORATOIRES SERVIER, priority 2018, published 2021).

For orientation: Ki means the equilibrium dissociation constant of an inhibitor or competing ligand from its target. A low value points to a stronger hold on the target. Usually IC50 stands for the concentration at which inhibition is half-maximal. Higher therefore signals weaker potency in that assay.

Experiment [1] concerns the target T1, USP7 (Homo sapiens, UniProt Q93009, C315A).
T1 construct: 0.25 nM His-His-USP7 (aa208-560, |C315A|) was incubated with compound; His-His (N)
As to the kind of experiment: Inhibition of USP7 by Fluorescence Intensity (FLINT) readings, Ubiquitin-Rhodamine-110 substrate. In kind it is biochemical. The note with it: 0.25 nM His-His-USP7 (aa208-560), 60 minutes at 30° C. preincubation; Ki determined from IC50 according to Cer et al. In short, it runs like this: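 Kinetic rate of Rhodamine-110 release from ubiquitin substrate (50 nM or 4 μM), read every 3 min for 21 min, after 60 min, 30 °C preincubation of 0.25 nM USP7 catalytic domain C315A with compound. Bicine pH 8.0 buffer, 10% DMSO; 11-point IC50 vs DMSO and no-enzyme controls, converted to Ki.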

Experiment [2] has as its system Z138 mantle cell lymphoma tumour cell lines. As to the kind of experiment: In vitro cytotoxicity, MTT assay. In kind it is cell-based. The note with it: Z138 cells, exposed to the test compounds for 96 hours. As to the method: The cytotoxicity studies were evaluated by MTT [3-(4,5-dimethylthiaxol-2-yl)-2,5-diphenyltetrazolium bromide|assay and carried out on Z138 mantle cell lymphoma tumour cell lines. The cells are distributed onto microplates and exposed to the test compounds for 96 hours. MTT is then added for 4 hours and converted by NAD(P)H-dependent cellular oxidoreductase enzymes in forma/an, which has a purple color. The viable cell number is proportional to the production of formazan salts and cell viability can be quantified by the absorbance of the solution at 540 nm with a spectrophotometer (Carmichael et al., Cancer Res. 1987, 47, 936-942).
A general note: Tetrazolium assays rely on reduction of a dye to a coloured formazan, in cell work by metabolically active cells.

T1 sequence (Q93009 208-560 C315A): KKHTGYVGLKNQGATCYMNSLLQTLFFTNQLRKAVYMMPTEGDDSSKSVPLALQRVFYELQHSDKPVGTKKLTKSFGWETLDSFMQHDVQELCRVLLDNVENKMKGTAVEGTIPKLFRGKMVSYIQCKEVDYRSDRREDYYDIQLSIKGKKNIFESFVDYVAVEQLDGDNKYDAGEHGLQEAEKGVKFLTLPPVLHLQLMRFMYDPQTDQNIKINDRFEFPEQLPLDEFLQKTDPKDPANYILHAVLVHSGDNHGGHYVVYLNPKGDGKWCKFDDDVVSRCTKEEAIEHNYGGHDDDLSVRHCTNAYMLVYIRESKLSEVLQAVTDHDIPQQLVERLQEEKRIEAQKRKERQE

In the case of `Nc1c(Oc2ccc(F)cc2)ncn(CC2(O)CCN(C(=O)[C@@H]3CCN(C(=O)c4cscn4)C[C@H]3c3ccccc3)CC2)c1=O` [Example 28, 5-amino-6-(4-fluorophenoxy)-3-[[4-hydroxy-1-[(3R,4R)-3-phenyl-1-thiazole-4-carbonyl)piperidine-4-carbonyl-4-piperidyl]methyl]pyrimidin-4-one], the Ki in experiment [1] amounted to 64.1 nM. Moreover, 138 nM corresponded to half-maximal inhibition in experiment [2] (Homo sapiens, Z-138) (IC50).

Turning to `Cc1nc(Br)sc1C(=O)N1CC[C@@H](C(=O)N2CCC(O)(Cn3cnc(Oc4ccc(F)cc4)c(N)c3=O)CC2)[C@H](c2ccccc2)C1` [Example 29, 5-amino-3-({1-[(3R,4R)-1-(2-bromo-4-methyl-1,3-thiazole-5-carbonyl)-3-phenylpiperidine-4-carbonyl]-4-hydroxypiperidin-4-yl}methyl)-6-(4-fluorophenoxy)pyrimidin-4(3H)-one], affinity in experiment [1] was put at a Ki of 7.1 nM. In experiment [2] (Homo sapiens, Z-138), the IC50 worked out at 1.8 nM.

As for `Nc1c(Oc2ccc(F)cc2)ncn(CC2(O)CCN(C(=O)[C@@H]3CCN(S(=O)(=O)c4ccccc4)C[C@H]3c3ccccc3)CC2)c1=O` [Example 30, 5-amino-3-({1-[(3R,4R)-1-(benzenesulfonyl)-3-phenyl-piperidine-4-carbonyl]A-hydroxy-4-piperidyl]methyl]-6-(4-fluorophenoxy)pyrimidin-4-one], in experiment [1], the affinity corresponds to a Ki of 28.4 nM. In experiment [2] (Homo sapiens, Z-138), this molecule came in with an IC50 of 9.1 nM.

In experiment [1], `Nc1c(Oc2ccc(F)cc2)ncn(CC2(O)CCN(C(=O)[C@@H]3CCN(C(=O)c4cccc(Br)c4)C[C@H]3c3ccccc3)CC2)c1=O` [Example 31, 5-amino-3-({1-((3R,4R)-1-(3-bromobenzoyl)-3-phenylpiperidine-4carbonyl]-4-hydroxypiperidin-4-yl)methyl)-6-(4-fluorophenoxy)pyrimidin-4(3H)-one] yielded a Ki of 9.15 nM. The molecule further came in with an IC50 in experiment [2] (Homo sapiens, Z-138) of 5.45 nM.

`Nc1c(Oc2ccc(F)cc2)ncn(CC2(O)CCN(C(=O)[C@@H]3CCN(C(=O)c4cncc(Br)c4)C[C@H]3c3ccccc3)CC2)c1=O` [Example 33, 5-amino-3-({1-[(3R,4R)-1-(5-bromopyridine-3-carbonyl)-3-phenylpiperidine-4-carbonyl]-4-hydroxypiperidin-4-yl}methyl)-6-(4-fluorophenoxy)pyrimidin-4(3)-one]: in experiment [1], the affinity, expressed as Ki, was 7.77 nM. The molecule further gave an IC50 in experiment [2] (Homo sapiens, Z-138) of 2.55 nM.

For the molecule `Cc1ccc(-c2cncc(C(=O)N3CC[C@@H](C(=O)N4CCC(O)(Cn5cnc(Oc6ccc(F)cc6)c(N)c5=O)CC4)[C@H](c4ccccc4)C3)c2)cn1` [Example 34, 5-amino-6-(4-fluorophenoxy)-3-({4-hydroxy-1-[(3R,4R)-1-(6′-methyl[3,3′-bipyridine]-5-carbonyl)-3-phenylpiperidine-4-carbonyl]piperidin-4-yl}methyl)pyrimidin-4(3H)-one], the Ki in experiment [1] turned out to be 3.58 nM. Besides, half-maximal inhibition in experiment [2] (Homo sapiens, Z-138) (IC50) required 11 nM.

In turn, `Nc1c(Oc2ccc(F)cc2)ncn(CC2(O)CCN(C(=O)[C@@H]3CCN(C(=O)c4cncc(-c5ccccc5)c4)C[C@H]3c3ccccc3)CC2)c1=O` [Example 35, 5-amino-6-(4-fluorophenoxy)-3-({4-hydroxy-1-[(3R,4R)-3-phenyl-1-(5-phenylpyridine-3-carbonyl)piperidine-4-carbonyl]piperidin-4-yl}methyl)pyrimidin-4(3H)-one] yielded a Ki in experiment [1] of 11.3 nM. Moreover, the 50% inhibitory concentration (IC50) in experiment [2] (Homo sapiens, Z-138) worked out at 5 nM.

As to `Nc1c(Oc2ccc(F)cc2)ncn(CC2(O)CCN(C(=O)[C@@H]3CCN(C(=O)c4ccccc4)C[C@H]3c3ccccc3)CC2)c1=O` [Example 36], in experiment [1], the Ki came to 15.1 nM. This molecule also showed an IC50 in experiment [2] (Homo sapiens, Z-138) of 8.93 nM.

`Cn1c(C(=O)N2CC[C@@H](C(=O)N3CCC(O)(Cn4cnc(Oc5ccc(F)cc5)c(N)c4=O)CC3)[C@H](c3ccccc3)C2)cc2ccccc21` [Example 37, 5-amino-6-(4-fluorophenoxy)-3-({4-hydroxy-1-[(3R,4R)-1-(1-methyl-1H-indole-2-carbonyl)-3-phenylpiperidine-4-carbonyl]piperidin-4-yl}methyl)pyrimidin-4(3H)-one] yielded a Ki in experiment [1] of 13.6 nM. This molecule also returned an IC50 in experiment [2] (Homo sapiens, Z-138) of 6.66 nM.

Consider `Cn1c(C(=O)N2CC[C@@H](C(=O)N3CCC(O)(Cn4cnc(Oc5ccc(F)cc5)c(N)c4=O)CC3)[C@H](c3ccccc3)C2)ccc1-c1ccccc1` [Example 38], for which, in experiment [1], the affinity corresponds to a Ki of 14 nM. The molecule also displayed a concentration for half-maximal inhibition (IC50) in experiment [2] (Homo sapiens, Z-138) of 11 nM.

Regarding `Nc1c(Oc2ccc(F)cc2)ncn(CC2(O)CCN(C(=O)[C@@H]3CCN(C(=O)c4sc(I)cc4F)C[C@H]3c3ccccc3)CC2)c1=O` [Example 39, 5-amino-3-({1-[(3R,4R)-1-(3-fluoro-5-iodothiophene-2-carbonyl)-3-phenylpiperidine-4-carbonyl]-4-hydroxypiperidin-4-yl}methyl)-6-(4-fluorophenoxy)pyrimidin-4(3H)-one], the affinity in experiment [1], expressed as Ki, was 8.2 nM. In experiment [2] (Homo sapiens, Z-138), this molecule returned an IC50 of 13 nM.

In turn, `Cc1ccc(-c2cc(F)c(C(=O)N3CC[C@@H](C(=O)N4CCC(O)(Cn5cnc(Oc6ccc(F)cc6)c(N)c5=O)CC4)[C@H](c4ccccc4)C3)s2)cn1` [Example 40] gave a Ki in experiment [1] of 4.19 nM. The molecule further gave an IC50 in experiment [2] (Homo sapiens, Z-138) of 1.7 nM.

Molecule `Cc1nc(Br)sc1C(=O)N1CC[C@@H](C(=O)N2CC[C@](O)(Cn3cnc(Oc4ccc(F)cc4)c(N)c3=O)C(F)(F)C2)[C@H](c2ccccc2)C1` [Example 41, 5-amino-3-(((4S)-1-[(3R,4R)-1-(2-bromo-4-methyl-1,3-thiazole-5-carbonyl)-3-phenylpiperidine-4-carbonyl]-3,3-difluoro-4-hydroxypiperidin-4-yl}methyl)-6-(4-fluorophenoxy)pyrimidin-4(3H)-one] gave a Ki in experiment [1] of 6.7 nM. Moreover, inhibition in experiment [2] (Homo sapiens, Z-138) was half-maximal at 2.5 nM (IC50).

On to `Cc1nc(-c2ccc(C(F)(F)F)nc2)sc1C(=O)N1CC[C@@H](C(=O)N2CCC(O)(Cn3cnc(Oc4ccc(F)cc4)c(N)c3=O)CC2)[C@H](c2ccccc2)C1` [Example 42, 5-amino-6-(4-fluorophenoxy)-3-({4-hydroxy-1-{(3R,4R)-1-{4-methyl-2-[6-(trifluromethyl)pyridin-3-yl]-1,3-thiazole-5carbonyl)-3-phenylpiperidine-4-carbonyl]piperidin-4-yl}methyl)pyrimidin-4(3H)-one], for which the Ki in experiment [1] was determined as 4.1 nM. The molecule also came in with an IC50 in experiment [2] of 3.66 nM.

`Cc1nc(-c2ccc(N(C)C)nc2)sc1C(=O)N1CC[C@@H](C(=O)N2CCC(O)(Cn3cnc(Oc4ccc(F)cc4)c(N)c3=O)CC2)[C@H](c2ccccc2)C1` [Example 43, 5-amino-3-({1-[(3R,4R)-1-{2-[16-(dimethylamino)pyridin-3-yl-4-methyl-1,3-thiazole-5-carbonyl}-3-phenylpiperidine-4-carbonyl]-4-hydroxypiperidin-4-yl]}methyl)-6-(4-fluorophenoxy)pyrimidin-4(3H)-one] yielded a Ki in experiment [1] of 6.42 nM. This molecule had an IC50 in experiment [2] (Homo sapiens, Z-138) of 1.2 nM.

In experiment [1], `Cc1nc(-c2ccc(F)cc2)sc1C(=O)N1CC[C@@H](C(=O)N2CC[C@](O)(Cn3cnc(Oc4ccc(F)cc4)c(N)c3=O)C(F)(F)C2)[C@H](c2ccccc2)C1` [Example 44] yielded a Ki of 18.1 nM. In addition, inhibition in experiment [2] (Homo sapiens, Z-138) was half-maximal at 7.4 nM (IC50).

For the molecule `Cc1ccc(-c2nc(C)c(C(=O)N3CC[C@@H](C(=O)N4CC[C@](O)(Cn5cnc(Oc6ccc(F)cc6)c(N)c5=O)C(F)(F)C4)[C@H](c4ccccc4)C3)s2)cn1` [Example 45], the affinity in experiment [1], expressed as Ki, was 3.6 nM. Moreover, in experiment [2] (Homo sapiens, Z-138), the concentration for half-maximal inhibition (IC50) is 1.4 nM.
